# Patent US20070141341A1, “Coating containing denatured aloe vera, for covering either chlorine-generating compositions or other hazardous chemicals and method for making” (priority 2005, published 2007)
# Tested on: E. coli
# Assay: Reductions of E. coli organisms
compound,measurement,setting,value
"O=c1n(Cl)c(=O)n(Cl)c(=O)n1Cl [Uncoated ACL, trichloroisocyanuric acid]",E. coli remaining after 5 minutes,after 5 minutes,0
same,E. coli remaining after: ½ hour,after ½ hour,Slightly
